Assay results: ChEMBL document CHEMBL6127113, “Penicamins A-L, Polyoxygenated Diterpenes from Penicillium camemberti JSB-7212” (J Nat Prod, 2024)
Active and inactive are the calls of the source. No cut-off for these calls is given here.

What was measured:
HT-29 = assay: Cytotoxicity against human HT-29 cells assessed as cell growth inhibition at 50 uM incubated for 48 hrs by CCK-8 assay; type: functional, cell-based
HepG2 = assay: Cytotoxicity against human HepG2 cells assessed as cell growth inhibition at 50 uM incubated for 48 hrs by CCK-8 assay; type: functional, cell-based
HeLa = assay: Cytotoxicity against human HeLa cells assessed as cell growth inhibition at 50 uM incubated for 48 hrs by CCK-8 assay; type: functional, cell-based
Staphylococcus aureus = assay: Antimicrobial activity against Staphylococcus aureus ATCC25923 assessed as inhibition of microbial growth at 50 uM incubated for 24 hrs by microbroth dilution assay; type: functional, organism-based
A549 = assay: Cytotoxicity against human A549 cells assessed as cell growth inhibition at 50 uM incubated for 48 hrs by CCK-8 assay; type: functional, cell-based
MCF7 = assay: Cytotoxicity against human MCF7 cells assessed as cell growth inhibition at 50 uM incubated for 48 hrs by CCK-8 assay; type: functional, cell-based
Escherichia coli = assay: Antimicrobial activity against Escherichia coli ATCC35218 assessed as inhibition of microbial growth at 50 uM incubated for 24 hrs by microbroth dilution assay; type: functional, organism-based
[1] = Selectivity index, ratio of CC50 for cytotoxicity against male BALB/c mouse Splenocyte cells to IC50 for immunosuppressive activity in male BALB/c mouse splenocyte assessed as reduction in ConA-induced T-cell proliferation; type: toxicity, cell-based; details: splenocytes, read-out: Ratio CC50/IC50
[2] = Cytotoxicity against male BALB/c mouse Splenocyte cells incubated for 48 hrs by CCK-8 assay; type: toxicity, cell-based; details: splenocytes
Splenocyte [3] = assay: Immunosuppressive activity in male BALB/c mouse splenocyte assessed as reduction in ConA-induced T-cell proliferation incubated for 48 hrs by CCK-8 assay; type: functional, cell-based
Splenocyte [4] = assay: Immunosuppressive activity in male BALB/c mouse splenocyte assessed as reduction in LPS-induced B-cell proliferation incubated for 48 hrs by CCK-8 assay; type: functional, cell-based
[5] = Selectivity index, ratio of CC50 for cytotoxicity against male BALB/c mouse Splenocyte cells to IC50 for immunosuppressive activity in male BALB/c mouse splenocyte assessed as reduction in LPS-induced B-cell proliferation; type: toxicity, cell-based; details: splenocytes, read-out: Ratio CC50/IC50

C=C(C)[C@H]1CC[C@]2(C)[C@@]34CC(=O)[C@@H](C)[C@@H](C[C@]3(C)C(=O)C[C@@]12O)O4
Activity (HT-29): inactive | Activity (HepG2): inactive | Activity (HeLa): inactive | Activity (Staphylococcus aureus): inactive | Activity (A549): inactive | Activity (MCF7): inactive | Activity (Escherichia coli): inactive

C=C(C)[C@H]1CC[C@]2(C)[C@@]3(O)CC(=O)C(C)=CC[C@]3(C)C(=O)C[C@@]12O
Activity (HT-29): inactive | Activity (HepG2): inactive | Activity (HeLa): inactive | Activity (Staphylococcus aureus): inactive | Activity (A549): inactive | Activity (MCF7): inactive | Activity (Escherichia coli): inactive

C=C(C)[C@H]1[C@H](O)C[C@]2(C)[C@@]34CC(=O)[C@@H](C)[C@@H](C[C@]3(C)C(=O)C[C@@]12O)O4
Activity (HT-29): inactive | Activity (HepG2): inactive | Activity (HeLa): inactive | Activity (Staphylococcus aureus): inactive | Activity (A549): inactive | Activity (MCF7): inactive | Activity (Escherichia coli): inactive

C=C(C)[C@H]1CC[C@@]23CO[C@@](O)(C[C@@]12O)[C@@]1(C)C[C@H]2O[C@]13[C@@H](O)C(=O)[C@H]2C
Activity (HT-29): inactive | Activity (HepG2): inactive | Activity (HeLa): inactive | Activity (Staphylococcus aureus): inactive | Activity (A549): inactive | Activity (MCF7): inactive | Activity (Escherichia coli): inactive

C=C(C)[C@H]1CC[C@@]23CO[C@@](O)(C[C@@]12O)[C@@]1(C)C[C@H]2O[C@]13C(=O)C(O)=C2C
Activity (HT-29): inactive | Activity (HepG2): inactive | Activity (HeLa): inactive | Activity (Staphylococcus aureus): inactive | Activity (A549): inactive | Activity (MCF7): inactive | Activity (Escherichia coli): inactive

C=C(C)[C@H]1CC[C@]2(C)[C@@]34C[C@@H](O)[C@@H](C)[C@@H](C[C@]3(C)C(=O)C[C@@]12O)O4
Activity (HT-29): inactive | Activity (HepG2): inactive | Activity (HeLa): inactive | Activity (Staphylococcus aureus): inactive | Activity (A549): inactive | Activity (MCF7): inactive | Activity (Escherichia coli): inactive

C=C(C)[C@H]1CC[C@@]23CO[C@@]4(O)C(=O)[C@@H](C)CC[C@](C)(C(=O)C[C@@]12O)[C@@]34O
Activity (HT-29): inactive | Activity (HepG2): inactive | Activity (HeLa): inactive | Activity (Staphylococcus aureus): inactive | Activity (A549): inactive | Activity (MCF7): inactive | Activity (Escherichia coli): inactive

C=C(C)[C@H]1CC[C@]2(C)C3=CC(=O)C(C)=CC[C@]3(C)C(=O)C[C@@]12O
Activity (HT-29): inactive | Activity (HepG2): inactive | Activity (HeLa): inactive | Activity (Staphylococcus aureus): inactive | Activity (A549): inactive | Activity (MCF7): inactive | Activity (Escherichia coli): inactive

C=C(C)[C@H]1CC[C@@]23CO[C@@]4(O)C(=O)C(C)=CC[C@](C)(C(=O)C[C@@]12O)[C@@]34O
Activity (HT-29): inactive | Activity (HepG2): inactive | Activity (HeLa): inactive | Activity (Staphylococcus aureus): inactive | Activity (A549): inactive | Activity (MCF7): inactive | Activity (Escherichia coli): inactive

C=C(CO)[C@H]1CC[C@@]2(C)C1=CC(=O)[C@@]1(C)C[C@H]3O[C@@]21CC(=O)[C@H]3C
Activity (HT-29): inactive | selectivity ratio [1]: > 2.5 | Activity (HepG2): inactive | CC50 at 48 h [2]: > 50 µM | IC50 (Splenocyte [3]): 20 µM | Activity (HeLa): inactive | IC50 (Splenocyte [4]): 7.9 µM | Activity (Staphylococcus aureus): inactive | Activity (A549): inactive | selectivity ratio [5]: > 6.3 | Activity (MCF7): inactive | Activity (Escherichia coli): inactive

C=C(CO)[C@H]1CC[C@]2(C)[C@@]34CC(=O)[C@@H](C)[C@@H](C[C@]3(C)C(=O)C[C@@]12O)O4
Activity (HT-29): inactive | selectivity ratio [1]: > 2.6 | Activity (HepG2): inactive | CC50 at 48 h [2]: > 50 µM | IC50 (Splenocyte [3]): 19 µM | Activity (HeLa): inactive | IC50 (Splenocyte [4]): 3 µM | Activity (Staphylococcus aureus): inactive | Activity (A549): inactive | selectivity ratio [5]: > 17 | Activity (MCF7): inactive | Activity (Escherichia coli): inactive
